Data reported in patent US8735414B2 (priority 2009, dated 2014).

Experiments:
[1] = system: bicistronic HCV replicon (replicon RNA, GenBank Accession No. AJ242654); test: HCV Replicon Assay; assay type: cell-based; conditions: Hepatitis C virus, 72 h, read-out: Replicon IC50

Row | Compound | melting point [°C] | IC50 [1] [nM]
1 | Cc1ccc2c(c1)c(C#N)c(-c1ccc(S(=O)(=O)N[C@H](C)C(F)(F)F)cn1)n2CC1CC1 [compound 458, 6-[3-cyano-1-(cyclopropylmethyl)-5-methyl-1H-indol-2-yl]-N-[(2R)-1,1,1-trifluoropropan-2-yl]pyridine-3-sulfonamide] | 166 to 172 | < 500
2 | CC(C)c1ccc2c(C#N)c(-c3ccc(S(=O)(=O)NC(CF)CF)cn3)n(CC3CC3)c2c1 [compound 460, 6-[3-cyano-1-(cyclopropylmethyl)-6-(propan-2-yl)-1H-indol-2-yl]-N-(1,3-difluoropropan-2-yl)pyridine-3-sulfonamide] | 132 to 134 | < 500
3 | C[C@@H](NS(=O)(=O)c1ccc(-c2c(C#N)c3cc(Cl)ccc3n2C2CCCCC2)nc1)C(F)(F)F [compound 461, 6-(5-chloro-3-cyano-1-cyclohexyl-1H-indol-2-yl)-N-[(2R)-1,1,1-trifluoropropan-2-yl]pyridine-3-sulfonamide] | 226 to 227 | < 500
4 | C[C@H](NS(=O)(=O)c1ccc(-c2c(C#N)c3cc(Cl)ccc3n2C2CCCCC2)nc1)C(F)(F)F [compound 462, 6-(5-chloro-3-cyano-1-cyclohexyl-1H-indol-2-yl)-N-[(2S)-1,1,1-trifluoropropan-2-yl]pyridine-3-sulfonamide] | 220 to 222 | < 500
5 | N#Cc1c(-c2ncc(S(=O)(=O)NC(CF)CF)cn2)n(C2CCCCC2)c2ccc(Cl)cc12 [compound 463, 2-(5-chloro-3-cyano-1-cyclohexyl-1H-indol-2-yl)-N-(1,3-difluoropropan-2-yl)pyrimidine-5-sulfonamide] | 251 to 253 | < 500
6 | C[C@H](NS(=O)(=O)c1cnc(-c2c(C#N)c3cc(Cl)ccc3n2C2CCCCC2)nc1)C(F)(F)F [compound 464, 2-(5-chloro-3-cyano-1-cyclohexyl-1H-indol-2-yl)-N-[(2S)-1,1,1-trifluoropropan-2-yl]pyrimidine-5-sulfonamide] | 253 to 255 | 500 to 2000
7 | N#Cc1ccc2c(C#N)c(-c3ccc(S(=O)(=O)NC(CF)CF)cn3)n(C3CCC3)c2c1 [compound 465, 6-(3,6-dicyano-1-cyclobutyl-1H-indol-2-yl)-N-(1,3-difluoropropan-2-yl)pyridine-3-sulfonamide] | 203 to 204 | < 500
8 | N#Cc1ccc2c(C#N)c(-c3ncc(S(=O)(=O)NC(CF)CF)cn3)n(C3CCC3)c2c1 [compound 466, 2-(3,6-dicyano-1-cyclobutyl-1H-indol-2-yl)-N-(1,3-difluoropropan-2-yl)pyrimidine-5-sulfonamide] | 240 to 241 | < 500
9 | C[C@H](NS(=O)(=O)c1ccc(-c2c(C#N)c3ccc(C#N)cc3n2C2CCC2)nc1)C(F)(F)F [compound 467, 6-(3,6-dicyano-1-cyclobutyl-1H-indol-2-yl)-N-[(2S)-1,1,1-trifluoropropan-2-yl]pyridine-3-sulfonamide] | 223 to 225 | < 500
10 | N#Cc1ccc2c(C#N)c(-c3ccc(S(=O)(=O)NC(CF)CF)cn3)n(C3CCCC3)c2c1 [compound 468, 6-(3,6-dicyano-1-cyclopentyl-1H-indol-2-yl)-N-(1,3-difluoropropan-2-yl)pyridine-3-sulfonamide] | 219 to 221 | < 500
11 | N#Cc1ccc2c(C#N)c(-c3ncc(S(=O)(=O)NC(CF)CF)cn3)n(C3CCCC3)c2c1 [compound 469, 2-(3,6-dicyano-1-cyclopentyl-1H-indol-2-yl)-N-(1,3-difluoropropan-2-yl)pyrimidine-5-sulfonamide] | 246 to 247 | 500 to 2000
12 | C[C@H](NS(=O)(=O)c1ccc(-c2c(C#N)c3ccc(C#N)cc3n2C2CCCC2)nc1)C(F)(F)F [compound 470, 6-(3,6-dicyano-1-cyclopentyl-1H-indol-2-yl)-N-[(2S)-1,1,1-trifluoropropan-2-yl]pyridine-3-sulfonamide] | 203 to 205 | < 500
13 | C[C@H](NS(=O)(=O)c1cnc(-c2c(C#N)c3ccc(OC(F)F)cc3n2C2CCCCC2)nc1)C1CC1 [compound 471, 2-[3-cyano-1-cyclohexyl-6-(difluoromethoxy)-1H-indol-2-yl]-N-[(1S)-1-cyclopropylethyl]pyrimidine-5-sulfonamide] | 150 to 152 | < 500
14 | C[C@H](NS(=O)(=O)c1cnc(-c2c(C#N)c3ccc(OC(F)F)cc3n2C2CCCCC2)nc1)C(F)(F)F [compound 472, 2-[3-cyano-1-cyclohexyl-6-(difluoromethoxy)-1H-indol-2-yl]-N-[(2S)-1,1,1-trifluoropropan-2-yl]pyrimidine-5-sulfonamide] | 187 to 189 | < 500
15 | CC(C)NS(=O)(=O)c1cnc(-c2c(C#N)c3ccc(OC(F)F)cc3n2C2CCCCC2)nc1 [compound 473, 2-[3-cyano-1-cyclohexyl-6-(difluoromethoxy)-1H-indol-2-yl]-N-(propan-2-yl)pyrimidine-5-sulfonamide] | 176 to 179 | < 500
16 | C[C@H](NS(=O)(=O)c1cnc(-c2c(C#N)c3cc(F)ccc3n2-c2ccccn2)nc1)C(F)(F)F [compound 474, 2-[3-cyano-5-fluoro-1-(pyridin-2-yl)-1H-indol-2-yl]-N-[(2S)-1,1,1-trifluoropropan-2-yl]pyrimidine-5-sulfonamide] | 209 to 210 | < 500
17 | Cc1ccc2c(C#N)c(-c3ncc(S(=O)(=O)N[C@@H](C)C(F)(F)F)cn3)n(-c3ccccn3)c2c1 [compound 475, 2-[3-cyano-6-methyl-1-(pyridin-2-yl)-1H-indol-2-yl]-N-[(2S)-1,1,1-trifluoropropan-2-yl]pyrimidine-5-sulfonamide] | 210 to 212 | < 500
18 | Cc1ccc2c(C#N)c(-c3ccc(S(=O)(=O)N[C@@H](C)C(F)(F)F)cn3)n(-c3ccccn3)c2c1 [compound 476, 6-[3-cyano-6-methyl-1-(pyridin-2-yl)-1H-indol-2-yl]-N-[(2S)-1,1,1-trifluoropropan-2-yl]pyridine-3-sulfonamide] | 199 to 203 | < 500
19 | N#Cc1c(-c2ncc(S(=O)(=O)NC(CF)CF)cn2)n(-c2ccc(F)cc2)c2cc(OC(F)F)ccc12 [compound 477, 2-[3-cyano-6-(difluoromethoxy)-1-(4-fluorophenyl)-1H-indol-2-yl]-N-(1,3-difluoropropan-2-yl)pyrimidine-5-sulfonamide] | 213 to 216 | < 500
20 | Cc1ccc2c(C#N)c(-c3ccc(S(=O)(=O)NC(C)(C)C(F)(F)F)cn3)n(C3CCC3)c2c1 [compound 478, 6-(3-cyano-1-cyclobutyl-6-methyl-1H-indol-2-yl)-N-(1,1,1-trifluoro-2-methylpropan-2-yl)pyridine-3-sulfonamide] | 222 to 227 | < 500
21 | Cc1ccc2c(c1)c(C#N)c(-c1ccc(S(=O)(=O)NC(C)(C)C(F)(F)F)cn1)n2C1CCC1 [compound 480, 6-(3-cyano-1-cyclobutyl-5-methyl-1H-indol-2-yl)-N-(1,1,1-trifluoro-2-methylpropan-2-yl)pyridine-3-sulfonamide] | 182 to 187 | < 500
22 | CCc1ccc2c(C#N)c(-c3ccc(S(=O)(=O)NC(C)(C)C(F)(F)F)cn3)n(C3CCC3)c2c1 [compound 481, 6-(3-cyano-1-cyclobutyl-6-ethyl-1H-indol-2-yl)-N-(1,1,1-trifluoro-2-methylpropan-2-yl)pyridine-3-sulfonamide] | 160 to 165 | < 500
23 | Cc1cc2c(C#N)c(-c3ccc(S(=O)(=O)NC(CF)CF)cn3)n(C3CCCC3)c2cc1F [compound 482, 6-(3-cyano-1-cyclopentyl-6-fluoro-5-methyl-1H-indol-2-yl)-N-(1,3-difluoropropan-2-yl)pyridine-3-sulfonamide] | 207 to 211 | < 500
24 | Cc1cc2c(C#N)c(-c3ccc(S(=O)(=O)N[C@@H](C)C(F)(F)F)cn3)n(C3CCCC3)c2cc1F [compound 483, 6-(3-cyano-1-cyclopentyl-6-fluoro-5-methyl-1H-indol-2-yl)-N-[(2S)-1,1,1-trifluoropropan-2-yl]pyridine-3-sulfonamide] | 219 to 223 | < 500
25 | Cc1ccc2c(c1)c(C#N)c(-c1ccc(S(=O)(=O)N[C@H](C)C(F)(F)F)cn1)n2C1CCC1 [compound 484, 6-(3-cyano-1-cyclobutyl-5-methyl-1H-indol-2-yl)-N-[(2R)-1,1,1-trifluoropropan-2-yl]pyridine-3-sulfonamide] | 134 to 142 | < 500
26 | Cc1ccc2c(c1)c(C#N)c(-c1ccc(S(=O)(=O)N[C@H](C)C(F)(F)F)cn1)n2C(C)C [compound 485, 6-[3-cyano-5-methyl-1-(propan-2-yl)-1H-indol-2-yl]-N-[(2R)-1,1,1-trifluoropropan-2-yl]pyridine-3-sulfonamide] | 167 to 173 | < 500
27 | Cc1ccc2c(c1)c(C#N)c(-c1ccc(S(=O)(=O)N[C@H](C)C(F)(F)F)cn1)n2C1CCCCC1 [compound 487, 6-(3-cyano-1-cyclohexyl-5-methyl-1H-indol-2-yl)-N-[(2R)-1,1,1-trifluoropropan-2-yl]pyridine-3-sulfonamide] | 180 to 189 | < 500
28 | C[C@H](NS(=O)(=O)c1ccc(-c2c(C#N)c3ccc(Cl)cc3n2-c2ccccn2)nc1)C1CC1 [compound 488, 6-[6-chloro-3-cyano-1-(pyridin-2-yl)-1H-indol-2-yl]-N-[(1S)-1-cyclopropylethyl]pyridine-3-sulfonamide] | 199 to 201 | < 500
29 | C[C@@H](NS(=O)(=O)c1ccc(-c2c(C#N)c3ccc(Cl)cc3n2-c2ccccn2)nc1)C(F)(F)F [compound 489, 6-[6-chloro-3-cyano-1-(pyridin-2-yl)-1H-indol-2-yl]-N-[(2R)-1,1,1-trifluoropropan-2-yl]pyridine-3-sulfonamide] | 198 to 199 | 500 to 2000
